PubChem BioAssay (NCI)
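Compound exposure: 48 hours, 5 concentrations, 96-well plates. GI50 = concentration required for 50% inhibition of growth. TGI: concentration producing complete growth inhibition.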

How the values were obtained:
Assay in all cases: DTP human tumour cell line panel, 48 h
[1] = test system: IGROV1 ovarian
[2] = test system: BT-549 breast
[3] = test system: SK-MEL-28 melanoma
[4] = test system: U251 CNS
[5] = test system: KM12 colon
[6] = test system: MDA-MB-231 breast
[7] = test system: SN12C renal
[8] = test system: NCI-H460 lung
[9] = test system: SR leukemia
[10] = test system: OVCAR-8 ovarian
[11] = test system: HCT-116 colon
[12] = test system: HOP-92 NSCLC
[13] = test system: A549 NSCLC
[14] = test system: SK-OV-3 ovarian
[15] = test system: COLO 205 colon
[16] = test system: HCC-2998 colon
[17] = test system: LOX IMVI melanoma
[18] = test system: UACC-62 melanoma
[19] = test system: OVCAR-3 ovarian
[20] = test system: RPMI-8226 leukemia
[21] = test system: SF-295 CNS
[22] = test system: OVCAR-5 ovarian
[23] = test system: NCI/ADR-RES ovarian
[24] = test system: SNB-19 CNS
[25] = test system: MCF7 breast
[26] = test system: MDA-MB-435
[27] = test system: UACC-257 melanoma
[28] = test system: HS 578T breast
[29] = test system: K-562 leukemia
[30] = test system: HCT-15 colon
[31] = test system: T-47D breast
[32] = test system: SW-620 colon
[33] = test system: CAKI-1 renal
[34] = test system: OVCAR-4 ovarian
[35] = test system: ACHN renal
[36] = test system: PC-3 prostate
[37] = test system: HOP-62 NSCLC
[38] = test system: SNB-75 CNS
[39] = test system: SK-MEL-5 melanoma
[40] = test system: HT29 colon
[41] = test system: MALME-3M melanoma
[42] = test system: M14 melanoma
[43] = test system: SK-MEL-2 melanoma
[44] = test system: NCI-H226 lung
[45] = test system: UO-31 renal
[46] = test system: MOLT-4 leukemia
[47] = test system: CCRF-CEM leukemia
[48] = test system: EKVX NSCLC
[49] = test system: 786-0 renal
[50] = test system: DU-145 prostate
[51] = test system: SF-539 CNS
[52] = test system: NCI-H23 lung
[53] = test system: HL-60(TB) leukemia
[54] = test system: NCI-H522 lung
[55] = test system: SF-268 CNS
[56] = test system: A498 renal
[57] = test system: TK-10 renal

SMILES: COc1ccc(CC(C)=C(c2ccc(OCCN3CCCC3)cc2)c2ccc(OCCN3CCCC3)cc2)cc1
- GI50 [1]: 3.78 µM
- TGI [1]: 7.16 µM
- GI50 [2]: 3.04 µM
- TGI [2]: 6.35 µM
- GI50 [3]: 3.6 µM
- TGI [3]: 6.83 µM
- GI50 [4]: 1810 nM
- TGI [4]: 5.47 µM
- GI50 [5]: 3.49 µM
- TGI [5]: 6.77 µM
- GI50 [6]: 3.25 µM
- TGI [6]: 6.44 µM
- GI50 [7]: 3.49 µM
- TGI [7]: 6.74 µM
- GI50 [8]: 3.15 µM
- TGI [8]: 6.45 µM
- GI50 [9]: 483 nM
- TGI [9]: 1300 nM
- GI50 [10]: 3.64 µM
- TGI [10]: 7.29 µM
- GI50 [11]: 1760 nM
- TGI [11]: 5.25 µM
- GI50 [12]: 773 nM
- TGI [12]: 3.92 µM
- GI50 [13]: 3.1 µM
- TGI [13]: 7.39 µM
- GI50 [14]: 4.19 µM
- TGI [14]: 7.93 µM
- GI50 [15]: 904 nM
- TGI [15]: 4.55 µM
- GI50 [16]: 2460 nM
- TGI [16]: 5.38 µM
- GI50 [17]: 1070 nM
- TGI [17]: 3.94 µM
- GI50 [18]: 4.02 µM
- TGI [18]: 7.4 µM
- GI50 [19]: 2680 nM
- TGI [19]: 5.59 µM
- GI50 [20]: 2120 nM
- TGI [20]: 9.37 µM
- GI50 [21]: 4 µM
- TGI [21]: 7.38 µM
- GI50 [22]: 3.49 µM
- TGI [22]: 6.68 µM
- GI50 [23]: 3.7 µM
- TGI [23]: 7.08 µM
- GI50 [24]: 3.93 µM
- TGI [24]: 7.32 µM
- GI50 [25]: 841 nM
- TGI [25]: 3.2 µM
- GI50 [26]: 721 nM
- TGI [26]: 2570 nM
- GI50 [27]: 3.95 µM
- TGI [27]: 7.59 µM
- GI50 [28]: 2990 nM
- TGI [28]: 7.17 µM
- GI50 [29]: 497 nM
- TGI [29]: 1280 nM
- GI50 [30]: 1280 nM
- TGI [30]: 4.36 µM
- GI50 [31]: 3.13 µM
- TGI [31]: 7.61 µM
- GI50 [32]: 2230 nM
- TGI [32]: 5.25 µM
- GI50 [33]: 4 µM
- TGI [33]: 7.31 µM
- GI50 [34]: 3.39 µM
- TGI [34]: 6.9 µM
- GI50 [35]: 3.36 µM
- TGI [35]: 6.48 µM
- GI50 [36]: 2990 nM
- TGI [36]: 7.25 µM
- GI50 [37]: 3.74 µM
- TGI [37]: 7.93 µM
- GI50 [38]: 2690 nM
- TGI [38]: 5.74 µM
- GI50 [39]: 3.81 µM
- TGI [39]: 7.05 µM
- GI50 [40]: 840 nM
- TGI [40]: 3.31 µM
- GI50 [41]: 3.57 µM
- TGI [41]: 6.81 µM
- GI50 [42]: 722 nM
- TGI [42]: 2500 nM
- GI50 [43]: 3.68 µM
- TGI [43]: 6.97 µM
- GI50 [44]: 3.2 µM
- TGI [44]: 6.63 µM
- GI50 [45]: 2790 nM
- TGI [45]: 5.75 µM
- GI50 [46]: 2070 nM
- TGI [46]: 5.96 µM
- GI50 [47]: 3.97 µM
- TGI [47]: 11.9 µM
- GI50 [48]: 3.68 µM
- TGI [48]: 7.02 µM
- GI50 [49]: 2780 nM
- TGI [49]: 6.05 µM
- GI50 [50]: 3.32 µM
- TGI [50]: 6.43 µM
- GI50 [51]: 3.59 µM
- TGI [51]: 6.84 µM
- GI50 [52]: 3.49 µM
- TGI [52]: 6.76 µM
- GI50 [53]: 4.14 µM
- TGI [53]: 8.53 µM
- GI50 [54]: 3.63 µM
- TGI [54]: 7.6 µM
- GI50 [55]: 3.24 µM
- TGI [55]: 6.7 µM
- GI50 [56]: 3.01 µM
- TGI [56]: 6.28 µM
- GI50 [57]: 3.66 µM
- TGI [57]: 7.28 µM
